Measured values taken from PubChem BioAssay (NCI).
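Method: 48-hour compound exposure of cells in 96-well plates, five concentrations, linear interpolation of endpoints. GI50 marks 50% less growth. TGI denotes the concentration required for complete inhibition of growth.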

Test system: MDA-MB-468 breast
Assay: NCI tumour cell line growth inhibition, 48 h

Structure (SMILES)	GI50 [nM]	TGI [µM]
C=C(C)[C@@H]1CC[C@]2(C(=O)N[C@H](CO)Cc3ccccc3)CC[C@]3(C)[C@H](CC[C@@H]4[C@@]5(C)CCCNC(C)(C)[C@@H]5CC[C@]43C)[C@@H]12	1520	3.03
O=C1C(Nc2ccc(Cl)cc2)=C(I)C(=O)c2ncccc21	1510	3.82
Cc1[nH]c2ccccc2c1CCCO	> 100000	> 100
Cn1ncnc1[C@H]1c2n[nH]c(=O)c3cc(F)cc(c23)N[C@@H]1c1ccc(F)cc1	1420	> 100
O=C1c2c(c3c4cc(Br)ccc4[nH]c3c3ccc4ccccc4c23)C(=O)N1CCN1CCNCC1	1800	4.48
O=C(N/N=C/C=C/c1ccc([N+](=O)[O-])o1)c1cc2ccccc2cc1O	1360	3.22
Cc1cc(NCCCN(C)C)c2ccc3c(ccc4c(NCCCN(C)C)cc(C)nc43)c2n1	153	0.312
CN(C)CCN1C(=O)c2c(c3c4ccccc4n4c3c3c2c2ccccc2n3C2CC(O)C(O)C4(C)O2)C1=O (stereo not drawn)	1520	5.65
COc1ccc(C/C(C)=C(/c2ccc(OCCN3CCCCC3)cc2)c2ccc(OC(=O)NCc3ccccc3)cc2)cc1	400	0.789
CC1=C(c2cccc(O)c2)[C@H](c2ccc(OCCN3CC(CF)C3)cc2)Oc2ccc(O)cc21	2400	6.24
COc1cc(C(=O)c2c(-c3ccccc3)oc3c(OC)cccc23)cc(OC)c1OC	83.9	11.1
COc1ccc(CCN2CC=Cn3c2nc2ccccc2c3=O)cc1	81.6	11.8
COc1ccc2c(c1)NC1=C(C(=O)OC1)C2c1cc(OC)c2c(c1)OCO2 (stereo not drawn)	< 15.4	0.061
CC1=C(C(=O)Nc2ccc3n[nH]c(C)c3c2)C(c2ccc(C(F)(F)F)cc2)CC(=O)N1 (stereo not drawn)	7090	> 25
Cc1ccccc1OCC(O)CN1CCN(c2ccc(Cl)cc2)CC1 (stereo not drawn)	17400	35.4
[Cl][Sn]([c]1ccccc1)([c]1ccccc1)[c]1ccccc1	137	0.326
CCNCCCn1c2c(c3ccc(Cl)cc3c1=O)C(=O)c1cc(OC)cnc1-2	249	4.3
CN1CCN(C(=O)C(C)(C)c2ccc(C(=O)Nc3cn4cc(-c5ccncc5)ccc4n3)cc2)CC1	162	1.18
Cc1cc(F)ccc1S(=O)(=O)Nc1cc(-c2c(O)ccc3ccccc23)c(O)c2ccccc12	1650	3.7
COc1cccc(-c2c[nH]c3c(N/N=C/c4ccncc4)ncnc23)c1	848	3.89
O=C1OCC2=C1C(c1cccc(Cl)c1)c1cc3c(cc1N2CCO)OCCO3 (stereo not drawn)	26.5	0.516
Cc1cc(NC(=O)NC(=O)c2ccccc2NC(=O)C(C)N)ccc1Oc1ncc(Br)cn1 (stereo not drawn)	< 10	28.5
O=C(Nc1cccc(-n2cc(-c3ccncc3)c(-c3ccc(Cl)c(O)c3)n2)c1)Nc1cc(C(F)(F)F)cc(C(F)(F)F)c1	264	2.65
Cc1cc([N+](=O)[O-])c(NS(=O)(=O)c2cccc(C(=O)O)c2)cc1-c1cccnc1	> 100000	> 100
COc1ccc2c(c1)c(CC(=O)[Se]C)c(C)n2C(=O)c1ccc(Cl)cc1	> 419	> 0.681
Cc1ccc(S(=O)(=O)c2c(COC(=O)c3cccc(C)c3)c(-c3ccccc3)nn2C)cc1	> 100000	> 100
O=C(Nc1ccc(Cl)cc1)Nc1nc2ccc([N+](=O)[O-])cc2s1	862	2.38
O=C(Nc1ccc(Br)cc1F)c1cc(I)ccc1O	2170	6.22
C#CC#CC#CC#CC#CC#CC#CC#CCC1OCC(COC(=O)O[C@@H](C(=O)O[C@H]2C[C@@]3(O)[C@@H](OC(=O)c4ccccc4)[C@@H]4[C@]5(OC(C)=O)CO[C@@H]5C[C@H](O)[C@@]4(C)C(=O)[C@H](OC(C)=O)C(=C2C)C3(C)C)[C@@H](NC(=O)c2ccccc2)c2ccccc2)O1 (stereo partly drawn)	67	0.423
